According to US8815535B2, “Disk diffusion assay for oritavancin” (The Medicines Company, priority 2011, dated 2014):
Read-outs that look alike come from different tables or passages of the source.

What was measured:
[1] = system: MSSA ATCC 25923; assay: Disk diffusion assay (zone of inhibition); type: cell-based, Staphylococcus aureus; settings: Staphylococcus aureus; for zone of inhibition at 100 µg/disc: 100 μg in 4% P80/Span 80 (1:1); for zone of inhibition at 200 µg/disc: 200 μg in 4% P80/Span 80 (1:1); for zone of inhibition at 180 µg/disc: 180 μg; for zone of inhibition at 270 µg/disc: 270 μg
Text: (§1) The study was designed to identify conditions that improve oritavancin diffusion in agar and consequently yield a zone diameter ≧15 mm for the CLSI quality control strain MSSA ATCC 25923. Excipients that increased the disk diffusion of oritavancin in agar relative to disks containing only oritavancin were identified and selected for further study. […] A prediffusion step at room temperature was introduced to maximize oritavancin diffusion prior to initiation of bacterial growth. In this step, the antimicrobial disks were placed on agar plates seeded with a bacterial isolate and incubated at room temperature for 3 hours. Plates were then incubated overnight at 37° C. Zone diameters around the disks in which bacterial growth was inhibited were measured with a ruler and reported in millimeters.
(§2) Ethanol-sterilized Whatman paper disks (6 mm diameter) were allowed to dry then impregnated with 20 microliters of oritavancin solution containing total amounts ranging from 90 to 360 micrograms. Disks were allowed to dry at room temperature for various times prior to use.
Bacterial suspensions were prepared and adjusted to an optical density of 0.1 at 600 nm. […] The plate was swabbed a second time, perpendicular to the orientation of the first swab. To assess the impact of prediffusion on diameter of inhibition zones, two disks were immediately placed on one half of the plate and the plate was incubated for 3 hours at room temperature. After 3 hours, two additional disks were placed on the other half of the plate then the plate was incubated overnight at 37° C. Zone diameters were measured with a ruler and reported in millimeters. […]
(§3) Oritavancin powder was dissolved in freshly-prepared solutions of the indicated excipients at concentrations of 0.625, 1.25, 2.5, 5, and 10 mg/ml (adjusted for potency based on lot 875561L00 purity of 83.1%) by vortexing for a minimum of 5 minutes. Oritavancin solutions in the various excipients, while not visually clear, were free from any apparent particulates as assessed visually. Sterile Oxoid blank disks were impregnated with 20 μl of these oritavancin solutions, resulting in oritavancin disk loads ranging from 12.5 to 200 μg. Unless indicated otherwise, disks were allowed to dry overnight at room temperature prior to use.
[…] Swabbing was continued at a right angle and then at an oblique angle to the first and second swabs. Disks were placed upon the seeded plates with sterile forceps. Plates were then incubated overnight at 37° C. and inhibition zone diameters were measured with a ruler and reported in millimeters.

[2] = system: MSSA ATCC 29213; assay: Disk diffusion assay (zone of inhibition); type: cell-based; settings: Staphylococcus aureus; for zone of inhibition at 360 µg/disc: 360 μg in 5% P80, read-out: Zone diameter (mm ± SD); for zone of inhibition at 180 µg/disc: MSSA ATCC 29213, 180 μg oritavancin in 2.5% P80, read-out: Zone diameter
Text: as §1, §2
Bacterial suspensions were prepared and adjusted to an optical density of 0.1 at 600 nm. Standard cation-adjusted Mueller Hinton agar plates (90 mm diameter) were seeded with bacterial suspensions by initially swabbing the center of plate then moving outward towards the edge. The plate was swabbed a second time, perpendicular to the orientation of the first swab. To assess the impact of prediffusion on diameter of inhibition zones, two disks were immediately placed on one half of the plate and the plate was incubated for 3 hours at room temperature. After 3 hours, two additional disks were placed on the other half of the plate then the plate was incubated overnight at 37° C. Zone diameters were measured with a ruler and reported in millimeters.
as §3
Bacterial suspensions from isolated colonies on overnight cation-adjusted Mueller Hinton agar plates were prepared in sterile saline and adjusted to an optical density of 0.1 at 600 nm Standard cation-adjusted Mueller Hinton agar plates (90 mm diameter) were seeded with bacterial suspensions by initially swabbing the center of plate then moving outward. Swabbing was continued at a right angle and then at an oblique angle to the first and second swabs. Disks were placed upon the seeded plates with sterile forceps. Plates were then incubated overnight at 37° C. and inhibition zone diameters were measured with a ruler and reported in millimeters.

[3] = read-out: Inhibition zone diameter, 25923, calcium alginate swab, dried overnight
[4] = read-out: Inhibition zone diameter, 25923, cotton swab, dried overnight, estimate of diameter
[5] = read-out: Inhibition zone diameter, MSSA ATCC 25923, Oxoid disk, 2.5% P80, stored 7 days, prediffusion 3 h at 4° C., duplicates
[6] = read-out: Inhibition zone diameter, MSSA ATCC 25923, Oxoid disk, 5% P80, stored 7 days, prediffusion 3 h at 4° C., duplicates
[7] = read-out: Inhibition zone diameter, MSSA ATCC 25923, Whatman #5 disk, 2.5% P80, stored 7 days, prediffusion 3 h at 4° C., duplicates
[8] = read-out: Inhibition zone diameter, MSSA ATCC 25923, Whatman #5 disk, 5% P80, stored 7 days, prediffusion 3 h at 4° C., duplicates

CN[C@H](CC(C)C)C(=O)N[C@H]1C(=O)N[C@@H](CC(N)=O)C(=O)N[C@H]2C(=O)N[C@H]3C(=O)N[C@H](C(=O)N[C@H](C(=O)O)c4cc(O)cc(O)c4-c4cc3ccc4O)[C@H](O[C@H]3C[C@](C)(N)[C@@H](O)[C@H](C)O3)c3ccc(c(Cl)c3)Oc3cc2cc(c3O[C@@H]2O[C@H](CO)[C@@H](O)[C@H](O)[C@H]2O[C@H]2C[C@](C)(NCc3ccc(-c4ccc(Cl)cc4)cc3)[C@@H](O)[C@H](C)O2)Oc2ccc(cc2Cl)[C@H]1O [oritavancin, N-(4-(4-chlorophenyl)benzyl)A82846B]
zone of inhibition at 50 µg/disc ([1]; read-out: Inhibition zone diameter, 25923, 50 μg in 4% P80/Span 80 (1:1), cotton swab, dried overnight, estimate of diameter): 24 mm
zone of inhibition at 100 µg/disc [1, 3]: 14 mm
zone of inhibition at 100 µg/disc [1, 4]: 21 mm
zone of inhibition at 200 µg/disc [1, 3]: 11 mm
zone of inhibition at 200 µg/disc [1, 4]: 15 mm
zone of inhibition at 1250 µg/mL ([1]; read-out: Inhibition zone diameter, ATCC 25923, 25 μg (20 μl of 1.25 mg/ml) in 4% P80/Span 80 (1:1), calcium alginate swab, dried overnight): 21 mm
zone of inhibition at 50 µg/disc ([1]; read-out: Inhibition zone diameter, ATCC 25923, 50 μg, 4% P80/Span 80 ratio 50:50, dried overnight, estimate of diameter): 23 mm
zone of inhibition at 50 µg/disc ([1]; read-out: Inhibition zone diameter, ATCC 25923, 50 μg, 4% P80/Span 80 ratio 60:40, dried overnight, estimate of diameter): 21 mm
zone of inhibition at 50 µg/disc ([1]; read-out: Inhibition zone diameter, ATCC 25923, 50 μg, 4% P80/Span 80 ratio 70:30, dried overnight, estimate of diameter): 19 mm
zone of inhibition at 50 µg/disc ([1]; read-out: Inhibition zone diameter, ATCC 25923, 50 μg, 4% P80/Span 80 ratio 80:20, dried overnight, estimate of diameter): 16 mm
zone of inhibition at 50 µg/disc ([1]; read-out: Inhibition zone diameter, ATCC 25923, 50 μg, 4% P80/Span 80 ratio 90:10, dried overnight, estimate of diameter): 13 mm
zone of inhibition at 1250 µg/mL ([1]; read-out: Inhibition zone diameter, ATCC 25923, 20 μl of 1.25 mg/ml oritavancin in 1% poly(ethylene glycol) sorbitol hexaoleate): ≤ 15 mm
zone of inhibition at 1250 µg/mL ([1]; read-out: Inhibition zone diameter, ATCC 25923, 20 μl of 1.25 mg/ml oritavancin in 5% Brij 30): ≤ 15 mm
zone of inhibition at 1250 µg/mL ([1]; read-out: Inhibition zone diameter, ATCC 25923, 20 μl of 1.25 mg/ml oritavancin in 5% Merpol SE): ≤ 15 mm
zone of inhibition at 18000 µg/mL ([1]; read-out: Inhibition zone diameter, ATCC 25923, Oxoid disks, 20 μl of 18 mg/ml oritavancin in 5% P80, stored 30 days at room temperature, prediffusion 6 hours at 4° C.): > 15 mm
zone of inhibition at 1250 µg/mL ([1]; read-out: Inhibition zone diameter, MSSA ATCC 25923, 20 μl of 1.25 mg/ml in 4% P80/Span 80 (1:1), cotton swab (FIG. 2), dried overnight): ~24 mm
zone of inhibition at 1250 µg/mL ([1]; read-out: Inhibition zone diameter, MSSA ATCC 25923, 20 μl of 1.25 mg/ml in 4% P80/Span 80 (1:1), flocked swab (FIG. 2), dried overnight): ~24 mm
zone of inhibition at 1250 µg/mL ([1]; read-out: Inhibition zone diameter, MSSA ATCC 25923, 20 μl of 1.25 mg/ml in 4% P80/Span 80 (1:1), foam swab (FIG. 2), dried overnight): ~26 mm
zone of inhibition at 1250 µg/mL ([1]; read-out: Inhibition zone diameter, MSSA ATCC 25923, 20 μl of 1.25 mg/ml in 4% P80/Span 80 (1:1), polyester swab (FIG. 2), dried overnight): ~24 mm
zone of inhibition at 1250 µg/mL ([1]; read-out: Inhibition zone diameter, MSSA ATCC 25923, 20 μl of 1.25 mg/ml in 4% P80/Span 80 (1:1), rayon swab (FIG. 2), dried overnight): ~22 mm
zone of inhibition at 180 µg/disc [1, 5]: 12.5 mm
zone of inhibition at 180 µg/disc [1, 6]: 12 mm
zone of inhibition at 270 µg/disc [1, 5]: 13 mm
zone of inhibition at 270 µg/disc [1, 6]: 13 mm
zone of inhibition at 360 µg/disc ([1]; read-out: Inhibition zone diameter, MSSA ATCC 25923, Oxoid disk, 360 μg, 2.5% P80, stored 7 days, prediffusion 3 h at 4° C., duplicates): 13 mm
zone of inhibition at 360 µg/disc ([1]; read-out: Inhibition zone diameter, MSSA ATCC 25923, Oxoid disk, 360 μg, 5% P80, stored 7 days, prediffusion 3 h at 4° C., duplicates): 14 mm
zone of inhibition at 180 µg/disc [1, 7]: 15.5 mm
zone of inhibition at 180 µg/disc [1, 8]: 14.5 mm
zone of inhibition at 270 µg/disc [1, 7]: 15.5 mm
zone of inhibition at 270 µg/disc [1, 8]: 16 mm
zone of inhibition at 360 µg/disc ([1]; read-out: Inhibition zone diameter, MSSA ATCC 25923, Whatman #5 disk, 360 μg, 2.5% P80, stored 7 days, prediffusion 3 h at 4° C., duplicates): 15.5 mm
zone of inhibition at 360 µg/disc ([1]; read-out: Inhibition zone diameter, MSSA ATCC 25923, Whatman #5 disk, 360 μg, 5% P80, stored 7 days, prediffusion 3 h at 4° C., duplicates): 16 mm
zone of inhibition at 360 µg/disc ([1]; read-out: Zone diameter (mm ± SD), ATCC 25923, 360 μg in 5% P80, Average of experiments, no prediffusion): 14.9 ± 0.5 mm
zone of inhibition at 360 µg/disc ([1]; read-out: Zone diameter (mm ± SD), ATCC 25923, 360 μg in 5% P80, Average of experiments, prediffusion): 17.5 ± 0.6 mm
zone of inhibition at 360 µg/disc ([1]; read-out: Zone diameter (mm ± SD), ATCC 25923, 360 μg in 5% P80, Experiment 1, disks stored 14 days, 3 h prediffusion at room temperature): 18 mm
zone of inhibition at 360 µg/disc ([1]; read-out: Zone diameter (mm ± SD), ATCC 25923, 360 μg in 5% P80, Experiment 2, disks stored 8 days, 3 h prediffusion at room temperature): 17 mm
zone of inhibition at 360 µg/disc ([2]; 336 h, ATCC 29213, Experiment 1, disks stored 14 days, no prediffusion): 15.8 ± 0.4 mm
zone of inhibition at 25 µg/disc ([2]; ATCC 29213, 25 μg (1.25 mg/ml) in 4% P80/Span 80 (1:1), dried overnight, read-out: Inhibition zone diameter): 24 mm
zone of inhibition at 360 µg/disc ([2]; ATCC 29213, Average, no prediffusion): 15.8 ± 0.4 mm
zone of inhibition at 360 µg/disc ([2]; ATCC 29213, Average, prediffusion): 18.3 ± 0.4 mm
zone of inhibition at 360 µg/disc ([2]; ATCC 29213, Experiment 1, disks stored 14 days, 3 h prediffusion at room temperature): 18.3 ± 0.4 mm
zone of inhibition at 180 µg/disc ([2]; 0% P80 in CAMHA, no prediffusion): 15.3 mm
zone of inhibition at 180 µg/disc ([2]; 0% P80 in CAMHA, prediffusion): 18.3 mm
zone of inhibition at 180 µg/disc ([2]; 1% P80 in CAMHA, no prediffusion): 15.3 mm
zone of inhibition at 180 µg/disc ([2]; 1% P80 in CAMHA, prediffusion): 18 mm
